Values of other authors as cited in US11224632B2 (priority 2016, dated 2022).

Biological target: N-type calcium channel (Homo sapiens, UniProt Q00975)
Settings: in vivo; cited from earlier work

Sequence of N-type calcium channel (Q00975 whole entry, looked up): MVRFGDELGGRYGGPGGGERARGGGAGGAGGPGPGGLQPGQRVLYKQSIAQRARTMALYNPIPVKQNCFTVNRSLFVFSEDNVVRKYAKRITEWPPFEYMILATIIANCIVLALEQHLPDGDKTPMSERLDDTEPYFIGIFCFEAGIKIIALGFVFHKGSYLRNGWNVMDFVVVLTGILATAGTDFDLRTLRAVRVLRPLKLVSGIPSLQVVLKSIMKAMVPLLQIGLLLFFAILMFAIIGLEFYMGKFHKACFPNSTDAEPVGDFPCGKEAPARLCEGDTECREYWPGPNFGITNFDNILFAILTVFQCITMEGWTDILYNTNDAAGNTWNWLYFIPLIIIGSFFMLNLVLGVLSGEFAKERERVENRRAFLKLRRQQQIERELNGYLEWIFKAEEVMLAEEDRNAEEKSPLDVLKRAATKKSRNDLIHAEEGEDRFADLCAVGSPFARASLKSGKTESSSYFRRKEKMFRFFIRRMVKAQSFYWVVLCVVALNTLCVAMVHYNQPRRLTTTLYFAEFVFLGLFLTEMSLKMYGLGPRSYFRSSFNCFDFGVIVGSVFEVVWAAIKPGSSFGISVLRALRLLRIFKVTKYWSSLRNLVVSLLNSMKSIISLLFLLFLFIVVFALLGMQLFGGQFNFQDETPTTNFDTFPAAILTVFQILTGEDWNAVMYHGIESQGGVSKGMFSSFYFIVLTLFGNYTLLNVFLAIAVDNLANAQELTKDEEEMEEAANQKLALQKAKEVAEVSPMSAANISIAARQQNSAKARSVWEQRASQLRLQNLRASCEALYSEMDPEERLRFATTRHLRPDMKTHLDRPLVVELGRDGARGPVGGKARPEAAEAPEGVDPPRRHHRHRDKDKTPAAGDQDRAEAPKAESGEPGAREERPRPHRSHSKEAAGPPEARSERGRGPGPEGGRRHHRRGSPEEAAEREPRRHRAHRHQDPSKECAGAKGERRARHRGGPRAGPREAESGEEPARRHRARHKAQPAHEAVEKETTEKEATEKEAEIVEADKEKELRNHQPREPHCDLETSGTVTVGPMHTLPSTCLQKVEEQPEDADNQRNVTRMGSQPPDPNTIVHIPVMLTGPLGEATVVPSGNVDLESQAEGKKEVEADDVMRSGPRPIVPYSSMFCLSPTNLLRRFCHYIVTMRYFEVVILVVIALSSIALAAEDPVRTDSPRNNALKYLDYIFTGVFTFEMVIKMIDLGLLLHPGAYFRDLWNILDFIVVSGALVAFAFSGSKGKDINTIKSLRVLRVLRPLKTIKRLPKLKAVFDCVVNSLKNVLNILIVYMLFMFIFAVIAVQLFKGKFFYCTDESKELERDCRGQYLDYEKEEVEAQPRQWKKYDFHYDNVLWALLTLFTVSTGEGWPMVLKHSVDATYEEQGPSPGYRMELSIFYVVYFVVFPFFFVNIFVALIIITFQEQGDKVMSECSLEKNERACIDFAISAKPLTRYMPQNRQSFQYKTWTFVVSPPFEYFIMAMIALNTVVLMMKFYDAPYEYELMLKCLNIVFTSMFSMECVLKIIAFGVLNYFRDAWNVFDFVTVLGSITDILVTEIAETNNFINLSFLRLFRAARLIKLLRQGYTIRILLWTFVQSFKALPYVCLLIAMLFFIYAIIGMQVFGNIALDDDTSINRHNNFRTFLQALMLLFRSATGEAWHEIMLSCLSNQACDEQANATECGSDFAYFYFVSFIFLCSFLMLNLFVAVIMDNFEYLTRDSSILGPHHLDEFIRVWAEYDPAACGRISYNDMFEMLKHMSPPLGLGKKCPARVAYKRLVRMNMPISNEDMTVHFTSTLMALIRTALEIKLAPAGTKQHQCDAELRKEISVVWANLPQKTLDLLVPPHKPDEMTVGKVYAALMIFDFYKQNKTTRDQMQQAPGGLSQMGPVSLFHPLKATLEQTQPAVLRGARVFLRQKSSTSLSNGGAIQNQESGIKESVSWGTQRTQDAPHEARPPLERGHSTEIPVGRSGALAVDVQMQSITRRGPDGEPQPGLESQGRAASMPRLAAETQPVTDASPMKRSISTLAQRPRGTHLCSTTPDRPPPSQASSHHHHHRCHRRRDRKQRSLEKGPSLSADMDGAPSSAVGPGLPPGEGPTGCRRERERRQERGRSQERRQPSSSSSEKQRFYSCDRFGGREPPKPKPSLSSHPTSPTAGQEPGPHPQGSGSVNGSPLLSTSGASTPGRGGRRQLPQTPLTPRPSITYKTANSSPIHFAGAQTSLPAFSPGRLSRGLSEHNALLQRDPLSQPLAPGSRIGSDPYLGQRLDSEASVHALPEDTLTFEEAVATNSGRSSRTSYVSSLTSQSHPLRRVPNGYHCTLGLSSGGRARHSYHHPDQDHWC

CSCC[C@@H]1NC(=O)[C@H](CC(C)C)NC(=O)[C@H](CCCNC(=N)N)NC(=O)[C@H](CO)NC(=O)[C@@H]2CSSC[C@@H]3NC(=O)[C@H](CO)NC(=O)CNC(=O)[C@H]([C@@H](C)O)NC(=O)[C@H](CSSC[C@H](N)C(=O)N[C@@H](CCCCN)C(=O)NCC(=O)N[C@@H](CCCCN)C(=O)NCC(=O)N[C@@H](C)C(=O)N[C@@H](CCCCN)C(=O)N2)NC(=O)[C@H](CSSC[C@@H](C(N)=O)NC(=O)[C@H](CCCCN)NC(=O)CNC(=O)[C@H](CO)NC(=O)[C@H](CCCNC(=N)N)NC3=O)NC(=O)[C@H](CC(=O)O)NC(=O)[C@H](Cc2ccc(O)cc2)NC1=O [ziconotide]
patients with severe CNS adverse effects: 88%
